In PMC12040169 (PLOS Biology, 2025):

Experiment: in vitro
Conditions: human, hela cells, % viability

Structure (SMILES)	viability at 28.5 h, 10 µM
CC(C)CN1C(=O)COC[C@@H]1[C@H](O)c1ccc(NC(=O)c2cccnc2)cc1 [CBK289692]	105%
CCNC(=O)Nc1ccc([C@@H](O)[C@H]2COCC(=O)N2CC)cc1 [CBK289696]	93.5%
O=C(Nc1ccc([C@@H](O)[C@H]2COCC(=O)N2Cc2ccccn2)cc1)c1cccs1 [CBK289700]	109%
Cn1ccnc1CN1C(=O)CO[C@H]2CN(c3ncccn3)C[C@H]21 [CBK289704]	98.3%
CCc1cn(CC(C(=O)OC)N(C)C)c(=O)[nH]c1=O (centres unmarked) [CBK289706]	107%
c1ccc2c(c1)CCN2c1ncnc2[nH]cnc12 [CBK291104]	100%
O=C(Cc1c[nH]c(=O)[nH]c1=O)N1CCCCC1c1nc2cc(F)ccc2[nH]1 (centres unmarked) [CBK291108]	104%
COc1ccc(-c2nc(-c3ccncc3)ncc2C(=O)NC2CCCCC2)cc1 [CBK291111]	95.4%
COc1ccc(-c2nc(-c3ccncc3)ncc2C(=O)NCc2ccncc2)cc1 [CBK291112]	96.4%
COc1ccc(Nc2ncc(C(=O)NCCCN3CCCC3)c3ccccc23)cc1 [CBK291114]	106%
Cc1ccc(NC(=O)Cn2c(=O)cc(O)c3ccccc32)cc1 [CBK291116]	95.9%
c1ccc2c(c1)CCN2c1ncnc2c1nc1n2CCCCC1 [CBK291119]	91.1%
COc1ccc(C(=O)O)cc1N1C(=O)CC(c2c(C)nn(-c3ccccc3)c2N)C1=O (centres unmarked) [CBK291120]	112%
Cc1cc(NC(=O)CCC2CCCCC2)nc2c1c(=O)oc1ccccc12 [CBK291125]	111%
O=c1[nH]c(N2CCC3(CC2)OCCO3)nc2c(-c3ccccc3Cl)csc12 [CBK291128]	114%
Cc1cc(Cn2nnc(-c3ccc(Br)cc3)n2)cc(C)c1O [CBK291129]	119%
Cc1cc(Cn2nnc(-c3cccnc3)n2)cc(C)c1O [CBK291130]	113%
Cc1cc(NC(=O)c2ccc(S(=O)(=O)N3CCOCC3)cc2)nc2c1c(=O)oc1ccccc12 [CBK291134]	106%
Cc1cc(NC(=O)c2ccc(S(=O)(=O)N(C)C)cc2)nc2c1c(=O)oc1ccccc12 [CBK291135]	104%
CC(c1ccncc1)N1Cc2cccc(C(=O)O)c2C1=O (centres unmarked) [CBK291137]	97.4%
COc1cc(Cn2c(-c3ccc(O)c(OC)c3)nc3ccccc32)ccc1O [CBK291138]	100%
Cc1ccc2sc(NC(=O)c3ccc(Cl)s3)nc2c1C [CBK291144]	103%
O=C(O)c1cccc2c1C(=O)N(Cc1ccncc1)C2 [CBK291146]	80.6%

Structure (SMILES)	viability at 28.5 h, 10 µM
COc1ccc(CCC(=O)N2CCCCC2c2ncc(-c3cccc(F)c3)[nH]2)cc1OC (centres unmarked) [CBK291148]	90.3%
Cc1nn(C)c(C)c1CCC(=O)N1CCCCC1c1ncc(-c2cccc(F)c2)[nH]1 (centres unmarked) [CBK291150]	89.9%
Cc1cc(NC(=O)CC2CCCCC2)nc2c1c(=O)oc1ccccc12 [CBK291151]	90.6%
Cc1ccc(CC(=O)N2CCCCC2c2ncc(-c3cccc(F)c3)[nH]2)cn1 (centres unmarked) [CBK291152]	98%
O=C1CC(c2ccccc2)CC(=O)N1c1nnn[nH]1 [CBK291154]	85.5%
O=C1CC(=O)N(Cc2ccc(F)cc2)C(=O)N1 [CBK291156]	95.2%
Cc1cc(O)cc(=O)n1Cc1ccccn1 [CBK291159]	91.8%
O=c1c(Cc2ccc(Cl)cc2)c(O)ccn1Cc1ccncc1 [CBK291161]	98.7%
O=c1cc(O)c2ccccc2n1Cc1ccccc1F [CBK291162]	86.3%
O=c1cc(O)c2cc([N+](=O)[O-])ccc2n1CCc1ccccc1 [CBK291165]	90.8%
Cc1cc2ncc3c(n2n1)NC(c1ccc(Cl)cc1Cl)NC3=O (centres unmarked) [CBK291167]	90.8%
O=C(O)c1ccc(N2C(=O)CC(c3ccccc3)CC2=O)cc1 [CBK291169]	87.3%
CC(C)CSc1nc(O)cc(=O)n1Cc1ccccc1 [CBK291170]	114%
COc1ccc(NC(=O)CSc2nc(C)c(Cc3ccc(O)cc3)[nH]2)cc1 [CBK291171]	95.4%
O=C(NCc1ccccc1)c1c(O)c2ccccc2n(Cc2ccccc2)c1=O [CBK291174]	91.6%
CCCn1c(=O)c(Cc2ccccc2)c(O)c2ccccc21 [CBK291175]	89.3%
COc1ccc(Cc2nc(-c3ccccc3)c3ccccc3n2)cc1F [CBK291176]	80.2%
COc1ccc(Oc2cc3n(c(=O)n2)CCc2cc(OC)c(OC)cc2-3)cc1 [CBK291177]	86.1%
CCc1c(C(=O)Nc2ccc3nc(C)cn3c2)cnc2cc(O)nn12 [CBK291178]	92.7%
CC(C)Oc1ccc(C2CC(=O)N(c3cccc(C(=O)O)c3)C2=O)cc1 (centres unmarked) [CBK291181]	89.8%
CCOC(CCNC(=O)c1cnc(Nc2ccccc2OC)c2ccccc12)OCC [CBK291184]	68.3%
Oc1ccc(Cn2c(-c3ccc(O)cc3)nc3ccccc32)cc1 [CBK291187]	90.3%
CCCCCn1c(=O)c(C(=O)Nc2cccc(O)c2)c(O)c2ccccc21 [CBK291189]	111%

Structure (SMILES)	viability at 28.5 h, 10 µM
O=C1CC(c2ccccc2)CC(=O)N1c1ccc(N2CCOCC2)cc1 [CBK291191]	108%
NS(=O)(=O)c1ccc2nc(NC(=O)c3ccc(N4C(=O)CCC4=O)cc3)sc2c1 [CBK291192]	117%
O=C(O)c1cccc2c1C(=O)N(Cc1cccnc1)C2 [CBK291193]	119%
Nc1nc(=O)c2cnc3ccc(F)cc3c2s1 [CBK291195]	111%
CCCc1nc(SC)ncc1C(=O)Nc1nnc(SCC)s1 [CBK291198]	108%
Cc1cc(NC(=O)c2ccc(C(C)(C)C)cc2)nc2c1c(=O)oc1ccccc12 [CBK291200]	120%
Cc1cc(NC(=O)CCCc2ccccc2)nc2c1c(=O)oc1ccccc12 [CBK291204]	109%
O=C(Nc1ccc(Br)cc1)c1c(O)n2c3c(cccc3c1=O)CCC2 [CBK291207]	103%
Cn1c(=O)[nH]c(=O)c2cnc(-c3ccc(Cl)cc3)nc21 [CBK291208]	95.6%
CCOCCCNC(=O)c1ccc(-c2cc(Oc3ccc(OC)cc3)ncn2)cc1 [CBK291209]	100%
COc1ccc(C(=O)Nc2nc3c(C)c(C)ccc3s2)cc1 [CBK291210]	107%
COc1ccc(Sc2nc(SC)nc(-c3ccccc3)c2C#N)cc1 [CBK291212]	94%
O=C(Nc1ccccn1)c1c(O)n(Cc2ccccc2)c2ccccc2c1=O [CBK291213]	90.3%
COC(=O)c1cccc2c1ncc1c(=O)nc(N)sc12 [CBK291214]	101%
O=C(c1cc(-c2ccccc2)n[nH]c1=O)N1CCc2ccccc2C1 [CBK291216]	91.2%
CCOC(=O)c1ccc2ncc3c(=O)nc(N)sc3c2c1 [CBK291218]	83.7%
Cn1c(=O)c2cnc(-c3ccccc3Cl)nc2n(C)c1=O [CBK291219]	85.7%
O=c1[nH]c(-c2cc(Cc3ccccc3Cl)ccc2O)nc2ccccc12 [CBK291220]	98.3%
O=C(Nc1ccncc1)c1c(O)n(Cc2ccccc2)c2ccccc2c1=O [CBK291222]	92%
CSc1ncc(C(=O)NC2CCCC2)c(NC2CCCC2)n1 [CBK291223]	91.3%
COc1ccc(Oc2ncnc3c2oc2ccccc23)cc1 [CBK291224]	86.4%
Cc1ccc2c(c1)nc(-c1ccc(O)cc1)n2Cc1ccc(O)cc1 [CBK291226]	77.4%
Nc1nc(=O)c2cnc3c(Cl)cccc3c2s1 [CBK291229]	89.5%

Structure (SMILES)	viability at 28.5 h, 10 µM
Cc1cc(NC(=O)CN2CCN(c3ccc(F)cc3)CC2)nc2c1c(=O)oc1ccccc12 [CBK291232]	88.8%
CCCCCn1c(=O)c(Cc2ccccc2)c(O)c2ccccc21 [CBK291233]	93.2%
COc1ccc(Nc2ncnc3c2oc2ccccc23)cc1 [CBK291236]	86.5%
Nc1nc(=O)c2cnc3ccc(C(=O)O)cc3c2s1 [CBK291239]	96.7%
COc1cccc2c1ncc1c(=O)nc(N)sc12 [CBK291241]	88.9%
O=C(Cn1c(=O)cc(O)c2ccccc21)Nc1cccc(F)c1 [CBK291242]	98.1%
Cn1c(=O)c2c(O)cc(=O)n(Cc3ccccc3)c2n(C)c1=O [CBK291245]	81.5%
Cc1cc(NC(=O)c2cc(Cl)ccc2[N+](=O)[O-])nc2c1c(=O)oc1ccccc12 [CBK291248]	85.9%
Nc1nc(=O)c2cnc3c(F)cccc3c2s1 [CBK291249]	91.1%
CCSc1nnc(NC(=O)c2cnc(SC)nc2CC)s1 [CBK291250]	101%
Nc1nc2c(s1)c(O)nc(=O)n2Cc1ccccc1 [CBK291257]	88.6%
Cc1cc(NC(=O)c2cc([N+](=O)[O-])ccc2Cl)nc2c1c(=O)oc1ccccc12 [CBK291258]	90.8%
CCn1c(=O)[nH]c(=O)c2cnc(-c3ccc(OC)cc3)nc21 [CBK291259]	107%
O=c1[nH]c(=O)n(Cc2cccnc2)c2nc[nH]c12 [CBK291260]	111%
Cc1cc(NC(=O)c2ccc(Br)cc2)nc2c1c(=O)oc1ccccc12 [CBK291262]	102%
O=C1COc2ccccc2C/C=C/CC2(CCN(C(=O)c3cncc(O)c3)CC2)C(=O)NCCN1 [CBK291989]	98.3%
CC(=O)NCC(=O)N1CCCC2(C/C=C/COc3ccccc3C(=O)NCCNC2=O)C1 (centres unmarked) [CBK291991]	87.1%
O=C1COc2ccccc2CCCCC2(CCCN(C(=O)CN3CCCC3=O)C2)CN1 (centres unmarked) [CBK291992]	105%
O=C1COc2ccccc2CCCCC2(CCCN(C(=O)CCN3CCCC3=O)C2)CN1 (centres unmarked) [CBK291998]	103%
CCC(=O)N1CC[C@H]2NC(=O)c3ccccc3OCC/C=C/C[C@H]2C1 [CBK291999]	91.3%
